Data reported in patent US6258790A, “Antisense modulation of integrin α4 expression” (Isis Pharmaceuticals, Inc., priority 1999, dated 2001).

Legend:
human integrin α4 = assay: Inhibition of human integrin α4 protein levels by antisense oligonucleotides (LIPOFECTIN, flow cytometry with CD49d-FITC) in A375 melanoma cells; type: cell-based
human integrin α4 mRNA = assay: Integrin α4 mRNA levels in A375 melanoma cells by real-time quantitative PCR; type: cell-based; settings: 24 hours, electroporation
Protocol: Quantitation of integrin α4 mRNA levels was performed by real-time quantitative PCR using the ABI PRISM™ 7700 Sequence Detection System (PE-Applied Biosystems, Foster City, Calif.) according to manufacturer's instructions. This is a closed-tube, non-gel-based, fluorescence detection system which allows high-throughput quantitation of polymerase chain reaction (PCR) products in real-time. As opposed to standard PCR, in which amplification products are quantitated after the PCR is completed, products in real-time quantitative PCR are quantitated as they accumulate. This is accomplished by including in the PCR reaction an oligonucleotide probe that anneals specifically between the forward and reverse PCR primers, and contains two fluorescent dyes. A reporter dye (e.g., JOE or FAM, obtained from either Operon Technologies Inc., Alameda, Calif. or PE-Applied Biosystems, Foster City, Calif.) is attached to the 5' end of the probe and a quencher dye (e.g., TAMRA, obtained from either Operon Technologies Inc., Alameda, Calif. or PE-Applied Biosystems, Foster City, Calif.) is attached to the 3' end of the probe. When the probe and dyes are intact, reporter dye emission is quenched by the proximity of the 3' quencher dye. During amplification, annealing of the probe to the target sequence creates a substrate that can be cleaved by the 5'-exonuclease activity of Taq polymerase. […] With each cycle, additional reporter dye molecules are cleaved from their respective probes, and the fluorescence intensity is monitored at regular intervals by laser optics built into the ABI PRISM™ 7700 Sequence Detection System. In each assay, a series of parallel reactions containing serial dilutions of mRNA from untreated control samples generates a standard curve that is used to quantitate the percent inhibition after antisense oligonucleotide treatment of test samples.
PCR reagents were obtained from PE-Applied Biosystems, Foster City, Calif. RT-PCR reactions were carried out by adding 20 μL PCR cocktail (1×TAQMANT buffer A, 5.5 mM MgCl2, 300 μM each of dATP, dCTP and dGTP, 600 μM of dUTP, 400 nM each of forward primer and reverse primer (or 100 nM in the case of G3PDH), 100 nM probe, 20 Units RNAse inhibitor, 1.25 Units AMPLITAQ GOLD™, and 12.5 Units MuLV reverse transcriptase) to 5 μL (100 ng) total mRNA solution, purified using the RNEasy™ kit (Qiagen, Valencia Calif.). The RT reaction was carried out by incubation for 30 minutes at 48° C. Following a 10 minute incubation at 95° C. to activate the AMPLITAQ GOLD™, 40 cycles of a two-step PCR protocol were carried out: 95° C. for 15 seconds (denaturation) followed by 60° C. for 1.5 minutes (annealing/extension). Integrin α4 probes and primers were designed to hybridize to the human integrin α4 sequence, using published sequence information (GenBank accession number L12002), incorporated herein as SEQ ID NO:1).
For integrin α4 the PCR primers were: forward primer: GACACGCTGCGCCTCAT (SEQ ID NO: 94, hybridizes at position 319-335 of Genbank accession no. L12002) reverse primer: […] (SEQ ID NO: 95, hybridizes at position 391-412 of Genbank accession no. L12002) and the PCR probe was: FAM-[…]-TAMRA (probe is SEQ ID NO: 96; hybridizes at position 361-382 of Genbank accession no. L12002) where FAM (PE-Applied Biosystems, Foster City, Calif.) is the fluorescent reporter dye) and TAMRA (PE-Applied Biosystems, Foster City, Calif.) is the quencher dye. […]

“17044 (CCGCAGCCATGCGCTCTTGG; phosphorothioate, 2'-MOE/deoxy, further chemistry not given here) [compound 17044]” was tested, and the “% Control” value (human integrin α4; Table 4, 10 nM) was 86%, the “% Inhib.” value (human integrin α4; Table 4, 10 nM) was 14% and the “% Control” value (human integrin α4; Table 4, 30 nM) was 73%. The “% Inhib.” value (human integrin α4; Table 4, 30 nM) was 27%, the “% Control” value (human integrin α4; Table 4, 100 nM) was 60% and the “% Inhib.” value (human integrin α4; Table 4, 100 nM) was 40%. The “% Control” value (human integrin α4; Table 4, 300 nM) was 58%, the “% Inhib.” value (human integrin α4; Table 4, 300 nM (highest dose)) was 42% and the “% Control” value (human integrin α4; Table 6, 10 nM) was 97%. The “% Control” value (human integrin α4; Table 6, 30 nM) was 84%, the “% Inhib.” value (human integrin α4; Table 6, 30 nM) was 16% and the “% Control” value (human integrin α4; Table 6, 100 nM) was 68%. The “% Inhib.” value (human integrin α4; Table 6, 100 nM) was 32%, the “% Control” value (human integrin α4; Table 6, 300 nM) was 39% and the “% Inhib.” value (human integrin α4; Table 6, 300 nM (highest dose)) was 61%.
For “107248 (antisense CTGAGTCTGTTTTCCATTCT; chemistry not given here) [compound 107248]”, the “% Control” value (human integrin α4; Table 24, A375 cells, lipofectin, as Example 8) was 34%, the “reduction of integrin α4 mRNA levels compared to control” value (“reduction of integrin α4 mRNA levels” for short) (human integrin α4 mRNA; 0.3 μM) was “approximately 23%” and the “reduction of integrin α4 mRNA levels” value (human integrin α4 mRNA; 1 μM) was ~38%. For the same substance, the “reduction of integrin α4 mRNA levels” value (human integrin α4 mRNA; 3 μM) was ~70%, the “reduction of integrin α4 mRNA levels” value (human integrin α4 mRNA; 10 μM) was ~80% and the “reduction of integrin α4 mRNA levels” value (human integrin α4 mRNA; 30 μM) was ~85%.
